Columns and labels:
[1] = tested on: TGF-β-sensitive promoter in the 3TPlux construct; test: TGF-β-sensitive 3TPlux luciferase reporter in transfected NIH 3T3 cells; format: cell-based, mouse; conditions: NIH 3T3, TGF-β by itself, 24 hour
Description: (§1) The latter contains a 4.5 kb fragment of the PN1 promoter driving the luciferase gene. Cells were incubated for 24 hours after transfection, washed 3 times with PBS and then subjected to a 24 hour treatment with geldanamycin, TGF or both, as indicated. Cells were then harvested and luciferase activities determined; Transient transfections were performed using lipofectamine (Gibco BRL) as follows: 10 μg (total) of indicated plasmid DNA was mixed with 30 μl of lipofectamine and 500 μl of serum-free DMEM (Gibco). This mixture was incubated at room temperature for 20 minutes. Ten cm dishes of sub-confluent 3T3 fibroblasts were rinsed with PBS, and 5 ml of serum free DMEM added to each dish. The DNA/lipofectamine mixture was added to each dish and incubated in the 37° CO2 incubator for 4 hours. Ten ml of DMEM with 15% serum was added and plates were incubated overnight. Medium was replaced with 10% serum at 24 hours and extracts of cells were harvested at 48 hours. Cell extracts were obtained using Passive Lysis Buffer (Promega) and assays were performed according to the Promega protocol for pGL3 luciferase vectors. Protein concentrations of all extracts were determined and each luciferase reading is normalized for protein concentration. The 4.7 kb human MMP1 promoter driving luciferase was a gift of Constance Brinckerhoff (Dartmouth Medical School) (36). […]

[2] = tested on: PN1 promoter; test: Protease nexin 1 (PN1) promoter luciferase reporter in transfected NIH 3T3 cells; format: cell-based, mouse; conditions: NIH 3T3, TGF-β alone, 24 hour
Description: as §1

[3] = tested on: Smad DNA-binding activity; test: Electrophoretic mobility shift assay, Smad binding element (SBE), 3T3 nuclear extracts; format: cell-based, mouse; conditions: 15 minute TGF-β treatment alone
Description: (A) Cells were harvested and subjecting to electrophoretic mobility shift analysis using a Smad binding element (SBE). […] Where indicated, extracts were prepared with 100-fold higher levels of cold competitor probe. (B) Cells were subjected to 24 hour treatments with geldanamycin at various concentrations and extracts prepared and bound to control Oct-1-binding duplex oligos to monitor non-specific effects of geldanamycin.
Protein concentrations of extracts were determined using the BCA reagent (Pierce). […] The probes were end-labeled using γ-^32P-ATP and T4 polynucleotide kinase. Electrophoretic mobility shift assays (EMSA) were performed using 5 μg nuclear extract, 1 μl poly dI/dC (1 mg/ml), 0.1 ng of labeled probe (in 1 μl), and buffer G to achieve a final volume of 10 μl. Buffer G consists of 20 mM Hepes (pH 7.6), 100 mM KCl, 0.2 mM EDTA and 20% glycerol. Extracts and oligo were incubated 15 minutes at room temperature before adding loading buffer and running on a non-denaturing gel.
Electrophoretic mobility shift assays were performed to examine whether geldanamycin reduced the level of Smad DNA-binding activity in nuclear extracts. As before, cells were also subjected to TGF-β or TGF-β and geldanamycin together. […]

[4] = tested on: endogenous collagen transcript in mouse 3T3 cells; test: Northern analysis of endogenous α1(I) collagen message, NIH 3T3 fibroblasts; format: cell-based; conditions: TGF-β alone, 24 hour
Description: FIGS. 7A-7C show fibroblasts subjected to 24-hour treatments with geldanamycin, TGF or both. After 24 hours, total RNA was harvested and subjected to northern analysis using an α1(I) collagen probe. (A) Northern analysis using NIH 3T3 fibroblasts. (B) Northern analysis using primary healthy human dermal fibroblasts. (C) Methylene blue staining of the filter in (B). Numbers represent relative intensities of the lower collagen band after normalizing bands to GAPDH band intensity; The clone corresponding to Hsp90-α was purchased as an EST from Genome Systems. […] Sequencing was performed at the Boston University DNA/Protein Sequencing Core. Northern analysis of Hsp90 to total RNA from scleroderma and healthy fibroblasts was performed as previously described (10). Geldanamycin was a generous gift of the National Cancer Institute. Geldanamycin was dissolved in dimethylsulfoxide (DMSO) and used at a final concentration of 2 μM except where indicated otherwise. DMSO without geldanamycin was added as the carrier control for all experiments using geldanamycin. The chaperone function of Hsp90 is dependent on the hydrolysis of ATP (44). […] Geldanamycin was examined to determine whether its inhibition of Hsp90 affected TGF-β activation of collagen transcription in mouse 3T3 and human dermal fibroblasts. Endogenous collagen message levels were used as a measure of TGF-β signal transduction. […]

nuclear Smad after TGF-β treatment [3]: modest increase
Substance: TGF-β
induction of the activity of the 3TPlux promoter [1]: 3.5 fold
effect of TGF-β on the expression of the PN1 promoter [2]: little effect
increase of endogenous collagen transcript level ([4]; NIH 3T3, absence of serum): approximately 6 fold
increase of endogenous collagen transcript level ([4]; NIH 3T3, presence of serum): 2 fold
